This note sets out measurements from patent US12091676B2, “Method for preparing non-human primate somatic cell cloned animal” (CENTER FOR EXCELLENCE IN BRAIN SCIENCE AND INTELLIGENCE …, priority 2018, dated 2024).

The test has as its system cynomolgus monkey somatic cell nuclear transfer embryos. Kind of test: In vitro development of cynomolgus monkey somatic cell nuclear transfer embryos to blastocyst. In kind it is cell-based, cynomolgus monkey (Macaca fascicularis). An excerpt:
Oocyte denucleation: 15-20 MII stage oocytes were transferred to a glass-bottomed and oil-sealed TH3 working drop containing […], and the position of the oocyte nucleus was observed under the inverted microscope assisted by the spindle imaging system, and the oocyte was fixed with an egg-holding needle and the oocyte nucleus was located at 3 o'clock direction. The Piezo Micromainpulator System was used to drive a flat needle with a diameter of 10 microns to break the zona pellucida, and the oocyte nucleus was removed. After the whole group of oocytes were enucleated, the enucleated oocytes were transferred to HECM-9 medium.
Injection of fibroblasts into enucleated oocytes: 15-20 enucleated oocytes were transferred to an oil-sealed TH3 working drop containing […], and the oocytes were fixed with an egg holding needle, and the polar body was placed at 12 o'clock or 6 o'clock direction. The laser zona pellucida system was used for breaking the zona pellucida to form a narrow slit. An oblique needle with a diameter of 15-18 microns was used for aspirating fibroblasts and transferring the cells to HVJ-E for 10 seconds, and then the cells were removed and injected into the perivitelline space of the enucleated egg cell through the zona pellucida slit, and the somatic cell would fuse into the oocyte in about 10 minutes.
Injection of cumulus cells into enucleated oocytes: 15-20 enucleated oocytes were transferred to an oil-sealed TH3 working drop containing […], and the oocytes were fixed with an egg holding needle, and the polar body was placed at 12 o'clock or at 6 o'clock direction. The laser zona pellucida system was used for breaking the zona pellucida to form a narrow slit. A 10-micron oblique needle was used for aspirating the cumulus cells and transferring the cells to HVJ-E to soak for 10 seconds, then the cells were removed and injected into the 9 o'clock position of the enucleated egg cell through the zona pellucida slit, and the somatic cell would fuse into the oocyte in about 10 minutes.
In vitro activation of nuclear transfer embryos: Embryo activation can be performed 1-1.5 hours after the fusion of somatic cells and enucleated oocytes. The embryos were transferred to TH3 containing 5 μM ionomycin for 5 minutes, then transferred to HECM-9 medium containing 2 mM 6-DMAP and 10 nM TSA for 5 hours, then transferred to HECM-9 containing 10 nM TSA and cultured for 5 hours, and finally transferred to HECM-9 medium for culture.
Kdm4d mRNA injection: 5-6 hours after embryo activation, the activated embryo was transferred to an oil-sealed TH3 working drop containing 5 μg/ml CB, the embryo was fixed with an egg-holding needle, and the Piezo Micromainpulator System was used to drive a flat injection needle with a diameter of 2-3 microns to break the zona pellucida and penetrate deep into the embryo. The embryo cell membrane was broken and 1000 ng/μl of Kdm4d mRNA was injected into the embryo, and each embryo was injected about 10 pl. After the injection, the embryos were transferred to HECM-9 medium and cultured at 37° C. and 5% CO2.
Embryo culture: cloned embryos were cultured in HECM-9 medium, and then transferred to HECM-9 medium containing 5% FBS at the 8-cell stage, and the medium was changed every other day until blastocysts were appeared on day 7-8.

Consider “Kdm5b: H3K4me3 demethylase injected into monkey somatic cell nuclear transfer embryos”, for which the “effect on improving the efficiency of monkey somatic cell nuclear transfer embryos” value was “no significant effect”. For the same molecule, where the note is “20 injected embryos”, the blastocyst rate came to 10%. Besides, the “blastocysts obtained (number)” value (of 20 injected monkey somatic cell nuclear transfer embryos) was found to be 2.

Consider `CC(/C=C/C(=O)NO)=C\[C@@H](C)C(=O)c1ccc(N(C)C)cc1` [TSA, Trichostatin, reference compound], for which, under “SCNT embryos cultured in vitro, TSA 10 nM, 10 h during and after activation”, the “embryos developed to the blastocyst stage (blastocysts/embryos)” value was 5/31. Besides, where the note is “out of 5 blastocysts, TSA 10 nM, 10 h”, the “blastocysts that had inner cell masses” value is on record as 2.
